Columns and labels:
NKT and γδT cells = experiment: NKT and γδT cell populations (flow cytometry, immunostaining); assay type: in vivo, mouse; conditions: hypercholesterolemic mice, 4 weeks
Description: (§1) All mice were purchased from Jackson Laboratories (Bar Harbor, Me.) and were maintained in the mouse barrier facility. Care of mice was in accordance with NIH guidelines and the Institutional Animal Care and Use Committee of the University of Massachusetts Medical School approved all protocols. Mice were kept on a 12 hr day/night schedule and were allowed free access to chow and water. ApoE^−/− and WT mice were fed standard mouse chow (5.4 g fat/100 g diet, 0% cholesterol). HCD mice were fed a diet with 10 g fat/100 g diet, […] (Research Diets, New Brunswick, N.J.). […] Azoxymethane (AOM) was given by intraperitoneal injection (10 mg/Kg weekly for 3 weeks); 1% dextran sodium sulfate was added to the drinking water for the Pt week after AOM treatment.
Cells were stained with monoclonal antibodies conjugated to various fluoroprobes. These antibodies included: Notch1, cKit (2B8), Sca-1 (E13-161.7), CD4 (L3T4), CD8 (53-6.72), CD90.1, CD25, CD44, TCRβ, NK1.1, γδTCR, CD45.1, CD45.2. The lineage cocktail consisted of CD4, CD8, B220 (RA3-6B2), TER-119, Mac-1 (MI/70), and Gr-1 (RB6-8C5). All antibodies were purchased from BD Bioscience (San Diego, Calif.). FACS analysis was carried out on a FACS Diva.
The colon and rectum was removed en bloc from each mouse and the number of polyps was identified using a dissecting microscope. Each polyp was frozen in OCT at −80° C. and cryosections (10 μM) cut. H&E staining was used to identify the histological grade of each polyp, assigned by a pathologist blinded to study condition. Standard immunostaining protocol was used to identify γδT cells (monoclonal antibody to γδTCR, DAPI counterstaining) and NKT cells (monoclonal antibodies to TCR and NK1.1, DAPI counterstaining). Sections were viewed with a Zeiss immunofluorescent microscope and Axiovert software.

[1] = tested on: hypercholesterolemic mice (ApoE^−/−, HCD); experiment: Azoxymethane (AOM)-induced colorectal neoplasia; design: species or system mouse; conditions: in vivo pretreatment
Description: as §1, with “treatment. The colon and rectum was removed en bloc from each mouse and the number of polyps was identified using a dissecting microscope. Each polyp was frozen in OCT at −80° C. and cryosections (10 μM) cut. […] (A) Total serum cholesterol measured under fasting conditions (16 hr) was greater in ApoE^−/− and HCD groups than in the WT group. […] Ten weeks later, the incidence and number of polyps were determined in the colon and rectum, and a pathologist blinded to study condition assigned each polyp a histological grade (hyperplasia, grade 1, 2, or 3 adenoma, or carcinoma). […]” for “treatment.”

ApoE^−/−-derived HSCs = experiment: HSC transplantation into lethally irradiated WT recipients; assay type: in vivo, mouse; conditions: 12 weeks after transplant; ApoE^−/− donors pretreated 4 weeks
Description: It was next determined the oxidant status of HSCs transplanted into WT mice. To this end, lethally irradiated WT mice were transplanted with HSCs from WT or ApoE^−/− mice, or with HSCs harvested from ApoE^−/− mice pretreated with NAC for 4 weeks. […] Numbers in each representative FACS analysis are the m±sd for that group; n=5; *p<0.05 vs. WT→WT group; †p<0.05 for ApoE+NAC→WT vs. Apoe→WT.

HSCs = experiment: Competitive HSC transplantation, bone marrow repopulation; assay type: in vivo, mouse; conditions: ApoE^−/− donor mice treated before HSC harvest (NAC 4 weeks; SB203580, PD98059 2 weeks)
Procedure: HSC were purified from freshly harvested bone marrow mononuclear cells as c-Kit^+Sca-1^+CD90.1^lowLin^− by FACS sorting. Recipient mice were C57BL/6 (WT) on standard chow. Recipients underwent lethal irradiation (1100 Rads delivered in 2 doses 3 hr apart). Immediately after the 2nd irradiation, recipients were anesthetized (2% isoflurane) and 10^6 HSC/0.1 ml sterile PBS were transplanted via retro-orbital injection. Mice were followed for 12 weeks before study or administration of AOM.
The functional consequence of this loss of quiescence by competitive transplantation was investigated next, insofar as the presence of quiescent HSC are critical for successful bone marrow reconstitution. HSCs from CD45.2 ApoE^−/− or HCD mice were mixed 1:1 with CD45.1 WT HSCs and then transplanted into lethally irradiated CD45.1 WT recipients.
Activation of p38 MAPK reduces HSC quiescence in Atm^−/− mice. To evaluate this phenomena in hypercholesterolemic mice, ApoE^−/− and WT mice were treated with the selective p38 MAPK inhibitor SB203580 or the MEK 1 inhibitor PD98059 for 2 weeks prior to harvest of HSCs for transplant. CD45.2 ApoE^−/− or WT HSCs with mixed 1:1 with CD45.1 WT HSCs and transplanted into lethally irradiated CD45.1 recipient mice.

SMILES: CC(=O)N[C@@H](CS)C(=O)O [NAC, N-acetylcysteine]
- colonic resident populations of NKT and γδT cells (NKT and γδT cells; healthy colon): restored the colonic resident populations of NKT and γδT cells to WT levels
- numbers of NKT and γδT cells in AOM-induced polyps (NKT and γδT cells): significantly increased the numbers of NKT and γδT cells in all grades of AOM-induced polyps
- percentages of γδT cells and NKT cells in the thymus and peripheral blood (NKT and γδT cells): reversed by in vivo treatment with NAC for 4 weeks
- histological severity of AOM-induced colorectal polyps ([1]; ApoE^−/− and HCD mice): these effects were reversed by in vivo pretreatment with NAC
- susceptibility to AOM-induced neoplasia ([1]; hypercholesterolemic mice): reduced susceptibility to AOM-induced neoplasia
- percentage of γδT cells in peripheral blood and NKT cells in thymus and peripheral blood of WT recipients (ApoE^−/−-derived HSCs): significantly less in WT recipients transplanted with ApoE^−/−-derived HSCs than WT mice transplanted with WT HSCs, or HSCs harvested from NAC-pretreated ApoE^−/− donor mice
- percentage of CD45.2^+ bone marrow mononuclear cells 12 weeks after competitive transplantation (HSCs): significantly increased the percentage of CD45.2^+ mononuclear cells in recipient bone marrow
